Among the data in the supplement of paper PMC10307832 are relative viability values, retold here.

Molecules are shown by their SMILES.

In the first assay the test system is SK-LU-1. Put plainly: relative viability (nuclei count vs DMSO), 5 days (fraction); higher = more cells survive. The note with it: first compound 0.8 µM. In short, it runs like this: (§1)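 Cells from lung cancer lines were seeded into 1536-well plates and, one day later, dosed by pin tool. Treatments were either a single drug or a fixed dose of an anchor drug with five library-drug doses (not always all listed) in √10 steps. After 5 days, nuclei were stained in a one-step fixation (final 0.05% Triton X-100, 1% formaldehyde, 1 ug/ml Hoechst) and counted on 4× images, and relative viability is the treated-to-vehicle nuclei ratio, as the median of duplicate plates.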
In the case of `Oc1nc(-c2ccc(C(F)(F)F)cc2)nc2c1CSCC2` [XAV939] + O=C(CCCCCCC(=O)Nc1ccccc1)NO [Vorinostat] (partner 1 µM), the relative viability was found to be 0.892.

Take `C=C1C(=O)O[C@@H](CCCCCCCC)[C@@H]1C(=O)O` [C-75] + Nc1nc2[nH]cc(CCc3ccc(C(=O)N[C@@H](CCC(=O)O)C(=O)O)cc3)c2c(=O)[nH]1 [Pemetrexed] (partner 0.2 µM): the relative viability was 0.845.

As for `Oc1nc(-c2ccc(C(F)(F)F)cc2)nc2c1CSCC2` [XAV939] + O=C(c1cc(Cc2n[nH]c(=O)c3ccccc23)ccc1F)N1CCN(C(=O)C2CC2)CC1 [Olaparib] (partner 8 µM), the relative viability amounted to 0.437.

For `Oc1nc(-c2ccc(C(F)(F)F)cc2)nc2c1CSCC2` [XAV939] + CC(=O)c1c(C)c2cnc(Nc3ccc(N4CCNCC4)cn3)nc2n(C2CCCC2)c1=O [Palbociclib] (partner 0.5 µM), the relative viability was found to be 0.396.

`C=C1C(=O)O[C@@H](CCCCCCCC)[C@@H]1C(=O)O` [C-75] + CC(=O)c1c(C)c2cnc(Nc3ccc(N4CCNCC4)cn3)nc2n(C2CCCC2)c1=O [Palbociclib] (partner 0.5 µM): the relative viability stood at 0.429.

Still in this assay, the particulars now being: first compound 2.53 µM.
In the case of `Oc1nc(-c2ccc(C(F)(F)F)cc2)nc2c1CSCC2` [XAV939] + O=C(CCCCCCC(=O)Nc1ccccc1)NO [Vorinostat] (partner 1 µM), the relative viability amounted to 0.87.

Regarding `C=C1C(=O)O[C@@H](CCCCCCCC)[C@@H]1C(=O)O` [C-75] + Nc1nc2[nH]cc(CCc3ccc(C(=O)N[C@@H](CCC(=O)O)C(=O)O)cc3)c2c(=O)[nH]1 [Pemetrexed] (partner 0.2 µM), the relative viability is 0.866.

In turn, `Oc1nc(-c2ccc(C(F)(F)F)cc2)nc2c1CSCC2` [XAV939] + O=C(c1cc(Cc2n[nH]c(=O)c3ccccc23)ccc1F)N1CCN(C(=O)C2CC2)CC1 [Olaparib] (partner 8 µM) yielded a relative viability of 0.596.

In the case of `Oc1nc(-c2ccc(C(F)(F)F)cc2)nc2c1CSCC2` [XAV939] + CC(=O)c1c(C)c2cnc(Nc3ccc(N4CCNCC4)cn3)nc2n(C2CCCC2)c1=O [Palbociclib] (partner 0.5 µM), the relative viability was found to be 0.394.

On to `C=C1C(=O)O[C@@H](CCCCCCCC)[C@@H]1C(=O)O` [C-75] + CC(=O)c1c(C)c2cnc(Nc3ccc(N4CCNCC4)cn3)nc2n(C2CCCC2)c1=O [Palbociclib] (partner 0.5 µM), for which the relative viability was 0.387.

The same assay, now with this note: first compound 8 µM.
`C=C1C(=O)O[C@@H](CCCCCCCC)[C@@H]1C(=O)O` [C-75] + Nc1nc2[nH]cc(CCc3ccc(C(=O)N[C@@H](CCC(=O)O)C(=O)O)cc3)c2c(=O)[nH]1 [Pemetrexed] (partner 0.2 µM) registered a relative viability of 0.746.

Molecule `C=C1C(=O)O[C@@H](CCCCCCCC)[C@@H]1C(=O)O` [C-75] + CC(=O)c1c(C)c2cnc(Nc3ccc(N4CCNCC4)cn3)nc2n(C2CCCC2)c1=O [Palbociclib] (partner 0.5 µM) displayed a relative viability of 0.384.

For a further assay, the system named is SW 900. Described as above. The conditions noted are these: first compound 0.08 µM. In outline: as §1
For `C=C1C(=O)O[C@@H](CCCCCCCC)[C@@H]1C(=O)O` [C-75] + Nc1nc2[nH]cc(CCc3ccc(C(=O)N[C@@H](CCC(=O)O)C(=O)O)cc3)c2c(=O)[nH]1 [Pemetrexed] (partner 0.2 µM), the relative viability amounted to 0.446.

Consider `C=C1C(=O)O[C@@H](CCCCCCCC)[C@@H]1C(=O)O` [C-75] + CC(=O)c1c(C)c2cnc(Nc3ccc(N4CCNCC4)cn3)nc2n(C2CCCC2)c1=O [Palbociclib] (partner 0.5 µM), for which the relative viability amounted to 0.49.

The same assay, now with this note: first compound 0.253 µM.
As to `Oc1nc(-c2ccc(C(F)(F)F)cc2)nc2c1CSCC2` [XAV939] + O=C(CCCCCCC(=O)Nc1ccccc1)NO [Vorinostat] (partner 1 µM), the relative viability was determined as 0.528.

`C=C1C(=O)O[C@@H](CCCCCCCC)[C@@H]1C(=O)O` [C-75] + Nc1nc2[nH]cc(CCc3ccc(C(=O)N[C@@H](CCC(=O)O)C(=O)O)cc3)c2c(=O)[nH]1 [Pemetrexed] (partner 0.2 µM) showed a relative viability of 0.462.

In turn, `Oc1nc(-c2ccc(C(F)(F)F)cc2)nc2c1CSCC2` [XAV939] + O=C(c1cc(Cc2n[nH]c(=O)c3ccccc23)ccc1F)N1CCN(C(=O)C2CC2)CC1 [Olaparib] (partner 8 µM) displayed a relative viability of 0.844.

The molecule `Oc1nc(-c2ccc(C(F)(F)F)cc2)nc2c1CSCC2` [XAV939] + CC(=O)c1c(C)c2cnc(Nc3ccc(N4CCNCC4)cn3)nc2n(C2CCCC2)c1=O [Palbociclib] (partner 0.5 µM) returned a relative viability of 0.539.

Take `C=C1C(=O)O[C@@H](CCCCCCCC)[C@@H]1C(=O)O` [C-75] + CC(=O)c1c(C)c2cnc(Nc3ccc(N4CCNCC4)cn3)nc2n(C2CCCC2)c1=O [Palbociclib] (partner 0.5 µM): the relative viability came to 0.647.

Staying with this assay, now noted: first compound 0.8 µM.
As for `Oc1nc(-c2ccc(C(F)(F)F)cc2)nc2c1CSCC2` [XAV939] + O=C(CCCCCCC(=O)Nc1ccccc1)NO [Vorinostat] (partner 1 µM), the relative viability amounted to 0.494.

`C=C1C(=O)O[C@@H](CCCCCCCC)[C@@H]1C(=O)O` [C-75] + Nc1nc2[nH]cc(CCc3ccc(C(=O)N[C@@H](CCC(=O)O)C(=O)O)cc3)c2c(=O)[nH]1 [Pemetrexed] (partner 0.2 µM) registered a relative viability of 0.479.

Regarding `Oc1nc(-c2ccc(C(F)(F)F)cc2)nc2c1CSCC2` [XAV939] + O=C(c1cc(Cc2n[nH]c(=O)c3ccccc23)ccc1F)N1CCN(C(=O)C2CC2)CC1 [Olaparib] (partner 8 µM), the relative viability came to 0.832.

Regarding `Oc1nc(-c2ccc(C(F)(F)F)cc2)nc2c1CSCC2` [XAV939] + CC(=O)c1c(C)c2cnc(Nc3ccc(N4CCNCC4)cn3)nc2n(C2CCCC2)c1=O [Palbociclib] (partner 0.5 µM), the relative viability was found to be 0.56.

`C=C1C(=O)O[C@@H](CCCCCCCC)[C@@H]1C(=O)O` [C-75] + CC(=O)c1c(C)c2cnc(Nc3ccc(N4CCNCC4)cn3)nc2n(C2CCCC2)c1=O [Palbociclib] (partner 0.5 µM) showed a relative viability of 0.601.

Staying with this assay, now noted: first compound 2.53 µM.
`Oc1nc(-c2ccc(C(F)(F)F)cc2)nc2c1CSCC2` [XAV939] + O=C(CCCCCCC(=O)Nc1ccccc1)NO [Vorinostat] (partner 1 µM) returned a relative viability of 0.373.

`C=C1C(=O)O[C@@H](CCCCCCCC)[C@@H]1C(=O)O` [C-75] + Nc1nc2[nH]cc(CCc3ccc(C(=O)N[C@@H](CCC(=O)O)C(=O)O)cc3)c2c(=O)[nH]1 [Pemetrexed] (partner 0.2 µM) returned a relative viability of 0.301.

Take `Oc1nc(-c2ccc(C(F)(F)F)cc2)nc2c1CSCC2` [XAV939] + O=C(c1cc(Cc2n[nH]c(=O)c3ccccc23)ccc1F)N1CCN(C(=O)C2CC2)CC1 [Olaparib] (partner 8 µM): the relative viability was found to be 0.421.

Molecule `Oc1nc(-c2ccc(C(F)(F)F)cc2)nc2c1CSCC2` [XAV939] + CC(=O)c1c(C)c2cnc(Nc3ccc(N4CCNCC4)cn3)nc2n(C2CCCC2)c1=O [Palbociclib] (partner 0.5 µM) displayed a relative viability of 0.285.

`C=C1C(=O)O[C@@H](CCCCCCCC)[C@@H]1C(=O)O` [C-75] + CC(=O)c1c(C)c2cnc(Nc3ccc(N4CCNCC4)cn3)nc2n(C2CCCC2)c1=O [Palbociclib] (partner 0.5 µM): the relative viability came to 0.594.

The assay is the same for the next values; noted with them: first compound 8 µM.
The molecule `C=C1C(=O)O[C@@H](CCCCCCCC)[C@@H]1C(=O)O` [C-75] + Nc1nc2[nH]cc(CCc3ccc(C(=O)N[C@@H](CCC(=O)O)C(=O)O)cc3)c2c(=O)[nH]1 [Pemetrexed] (partner 0.2 µM) showed a relative viability of 0.454.

The molecule `C=C1C(=O)O[C@@H](CCCCCCCC)[C@@H]1C(=O)O` [C-75] + CC(=O)c1c(C)c2cnc(Nc3ccc(N4CCNCC4)cn3)nc2n(C2CCCC2)c1=O [Palbociclib] (partner 0.5 µM) showed a relative viability of 0.607.
